From article PMC6896057, “Dual PDK1/Aurora Kinase A Inhibitors Reduce Pancreatic Cancer Cell Proliferation and Colony Formation” (Cancers, 2019)

Columns and labels:
Assay type in all cases: cell-based, human
[1] = system: phosphorylation of Akt at Thr308 in AsPC-1; assay: Western blot, FBS-induced phosphorylation of Akt at Thr308; conditions: 5 μM, FBS 1 h
Method: (§1) Lysates were then assessed by Western blotting using the indicated antibodies. Representative blots of at least three independent experiments are shown. In all blots, Akt total (A,B) and α-actinin (C,D) were used as loading control. In (A,B) membranes incubated with pAkt (Thr308) were stripped and re-incubated with anti Akt. The percentage of phosphorylated Akt is calculated by normalization to the loading control total Akt. In (C,D) membranes incubated with pAurora (Thr288) were stripped and re-incubated with anti-Aurora A. The percentage of phosphorylated Aurora A is calculated by normalization to the loading control α-actinin.
(§2) Cells (300,000 per well) from different cell lines were seeded in six-well plates. The next day, five wells were stimulated with nocodazole 200 ng/mL for 24 h. Then four wells were treated for 2 h with the inhibitors of interest. To analyze the expression of phosphorylated PLCγ, cells were incubated overnight in serum-free culture media. […] Supernatants were transferred in a 1.5 mL Eppendorf tube and protein concentrations were determined using the Direct Detect Assay-Free cards and the Direct Detect Spectrometer (Merck Millipore, Decantur, IL, USA). […]

[2] = system: phosphorylation of Akt at Thr308 in HPAF-II; assay: as above; conditions: 5 μM, FBS 1 h
Method: as §1, §2

[3] = system: PLCγ1 Tyr783 phosphorylation in HPAF-II; assay: Western blot, EGF-induced phosphorylation of PLCγ1 at Tyr783; conditions: 5 μM, 30 min, then EGF 25 ng/mL 10 min
Method: (§3) Lysates were then assessed by Western blotting using the indicated antibodies. Representative blots of at least three independent experiments are shown. The percentage of phosphorylated PLCγ1 is calculated by normalization to the loading control GAPDH. […] The percentage of phosphorylated PLK1 is calculated by normalization to the loading control α-actinin. […] The percentage of phosphorylated Histone H3 is calculated by normalization to the loading control α-actinin.
(§4) Cells (300,000 per well) from different cell lines were seeded in six-well plates. The next day, five wells were stimulated with nocodazole 200 ng/mL for 24 h. Then four wells were treated for 2 h with the inhibitors of interest. To analyze the expression of phosphorylated PLCγ, cells were incubated overnight in serum-free culture media. […] Cells were then collected by scraping and lysed in cold radioimmunoprecipitation assay buffer (150 mM sodium chloride, 1.0% NP-40 or Triton X-100, 0.5% sodium deoxycholate, 0.1% sodium dodecyl sulphate, 50 mM Tris HCl, pH 8.0) supplemented with 1X Protease/Phosphatase Inhibitor Cocktail (100X stock, Sigma Aldrich, St. Louis, MO, USA). […] Supernatants were transferred in a 1.5 mL Eppendorf tube and protein concentrations were determined using the Direct Detect Assay-Free cards and the Direct Detect Spectrometer (Merck Millipore, Decantur, IL, USA). […]

[4] = system: PLCγ1 Tyr783 phosphorylation in AsPC-1; assay: as above; conditions: 5 μM, 30 min, then EGF 25 ng/mL 10 min
Method: as §3, §4

[5] = system: PLK1 Thr210 phosphorylation in HPAF-II; assay: Western blot, phosphorylation of PLK1 at Thr210, nocodazole-synchronized cells; conditions: 5 μM, 1 h, nocodazole 200 ng/mL
Method: as §3
(§5) Cells (300,000 per well) from different cell lines were seeded in six-well plates. The next day, five wells were stimulated with nocodazole 200 ng/mL for 24 h. […] To analyze the expression of phosphorylated PLCγ, cells were incubated overnight in serum-free culture media. […] Cells were then collected by scraping and lysed in cold radioimmunoprecipitation assay buffer (150 mM sodium chloride, 1.0% NP-40 or Triton X-100, 0.5% sodium deoxycholate, 0.1% sodium dodecyl sulphate, 50 mM Tris HCl, pH 8.0) supplemented with 1X Protease/Phosphatase Inhibitor Cocktail (100X stock, Sigma Aldrich, St. Louis, MO, USA). Lysates were sonicated at 4 °C and centrifuged at 10,000 g for 10 min at 4 °C. Supernatants were transferred in a 1.5 mL Eppendorf tube and protein concentrations were determined using the Direct Detect Assay-Free cards and the Direct Detect Spectrometer (Merck Millipore, Decantur, IL, USA). […]

[6] = system: PLK1 Thr210 phosphorylation in AsPC-1; assay: as above; conditions: 5 μM, 1 h, nocodazole 200 ng/mL
Method: as §3, §5

[7] = system: phosphorylation of Aurora A at Thr288 in AsPC-1; assay: Western blot, Aurora A phosphorylation at Thr288, nocodazole-synchronized cells; conditions: 10 µM, 1 h, nocodazole 200 ng/mL
Method: as §1
as §2, with “Then four wells were treated for 2 h with the inhibitors of interest.” left out

[8] = system: phosphorylation of Aurora A at Thr288 in HPAF-II; assay: as above; conditions: 10 µM, 1 h, nocodazole 200 ng/mL
Method: as §1
as §2, with “Then four wells were treated for 2 h with the inhibitors of interest.” left out

Compound	effect on FBS-induced phosphorylation of Akt at Thr308 [1]	effect on FBS-induced phosphorylation of Akt at Thr308 [2]	effect on EGF-induced activation of PLCγ1 (Tyr783) [3]	effect on EGF-induced activation of PLCγ1 (Tyr783) [4]	effect on phosphorylation of PLK1 at Thr210 [5]	effect on phosphorylation of PLK1 at Thr210 [6]	effect on phosphorylation of Aurora A at Thr288 [7]	effect on phosphorylation of Aurora A at Thr288 [8]
CNc1nc(-c2ccc3c(N)n[nH]c3c2)cc(N2C[C@@H](C(=O)NC3CCCCC3)CC[C@H]2C)n1 [GSK2334470]	efficiently reduced	efficiently reduced	strongly reduced	strongly reduced				
CCN1CCN(C(=O)Cc2ccc(Nc3ncc(F)c(Nc4ccc(C(=O)Nc5ccccc5Cl)cc4)n3)cc2)CC1 [Aur I]					reduction in the phosphorylation of PLK1	reduction in the phosphorylation of PLK1	efficiently reduced	efficiently reduced
